From ChEMBL document CHEMBL1138366, “Conformational comparisons of a series of tachykinin peptide analogs” (J Med Chem, 2007)
Residues, ends and D or L forms follow the SMILES beside them.

Molecular target: Substance-P receptor (Rattus norvegicus, UniProt P14600)
Experiment: Displacement of [125I]Lys3-substance P from rat NK1 receptor expressed in CHO cells
Format: cell-based

Chain of Substance-P receptor (P14600 whole entry): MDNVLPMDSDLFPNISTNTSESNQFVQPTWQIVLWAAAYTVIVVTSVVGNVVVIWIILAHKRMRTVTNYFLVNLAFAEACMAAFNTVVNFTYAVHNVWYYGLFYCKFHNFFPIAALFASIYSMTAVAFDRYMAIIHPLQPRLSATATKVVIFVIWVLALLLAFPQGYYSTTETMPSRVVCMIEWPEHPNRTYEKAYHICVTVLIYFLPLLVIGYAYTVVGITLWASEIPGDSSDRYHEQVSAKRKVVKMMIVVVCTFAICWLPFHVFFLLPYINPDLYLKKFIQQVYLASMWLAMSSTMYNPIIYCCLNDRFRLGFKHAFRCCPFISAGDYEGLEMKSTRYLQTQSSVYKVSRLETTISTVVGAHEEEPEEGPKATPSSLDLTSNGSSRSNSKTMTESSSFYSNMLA

Row | Structure (SMILES) | IC50 (read-out: Log IC50 (converted)) | IC50 (read-out: IC50)
1 | CC[C@H](C)[C@H](NC(=O)[C@H](Cc1ccccc1)NC(=O)[C@H](CO)NC(=O)[C@H](C)NC(=O)[C@@H]1CCCN1C(=O)[C@H](CC(N)=O)NC(=O)[C@@H](N)Cc1cnc[nH]1)C(=O)NCC(=O)N[C@@H](CC(C)C)C(=O)N[C@@H](CCSC)C(N)=O (H-HNPASFIGLM-NH2) | 32.4 nM | 
2 | CSCC[C@H](NC(=O)[C@H](CC(C)C)NC(=O)CNC(=O)[C@H](Cc1ccccc1)NC(=O)[C@H](Cc1ccccc1)NC(=O)[C@H](CCC(N)=O)NC(=O)[C@H](C)NC(=O)[C@@H]1CCCN1C(=O)[C@H](CCCCN)NC(=O)[C@@H]1CCCN1C(=O)[C@@H](N)CCCNC(=N)N)C(N)=O |  | 0.7 nM
3 | CSCC[C@H](NC(=O)[C@H](CC(C)C)NC(=O)CNC(=O)[C@H](Cc1ccccc1)NC(=O)[C@H](Cc1ccccc1)NC(=O)[C@H](CO)NC(=O)[C@H](C)NC(=O)[C@@H]1CCCN1C(=O)[C@H](CCCCN)NC(=O)[C@@H]1CCCN1C(=O)[C@@H](N)CCCN=C(N)N)C(N)=O (H-RPKPASFFGLM-NH2) |  | 21 nM
4 | CSCC[C@H](NC(=O)[C@H](CC(C)C)NC(=O)CNC(=O)[C@H](Cc1ccccc1)NC(=O)[C@H](Cc1ccccc1)NC(=O)[C@H](CCC(N)=O)NC(=O)[C@H](CCC(N)=O)NC(=O)[C@@H]1CCCN1C(=O)[C@H](CCCCN)NC(=O)[C@@H]1CCCN1)C(N)=O (H-PKPQQFFGLM-NH2) |  | 4.6 nM
5 | CSCC[C@H](NC(=O)[C@H](CC(C)C)NC(=O)CNC(=O)[C@H](Cc1ccccc1)NC(=O)[C@H](Cc1ccccc1)NC(=O)[C@H](CO)NC(=O)[C@H](CCC(N)=O)NC(=O)[C@@H]1CCCN1C(=O)[C@H](CCCCN)NC(=O)[C@@H]1CCCN1C(=O)[C@@H](N)CCCN=C(N)N)C(N)=O |  | 4.1 nM
